Source: patent US11602521B2, “N,N-dimethyltryptamine compositions and methods” (ATAI Life Sciences AG, priority 2021, dated 2023)
Like-named read-outs stand apart in the source and are kept apart here.

Experiment: DMT plasma concentration after a single SC injection of DMT succinate to rats
Assay type: in vivo
Conditions: for DMT plasma concentration: rats; for AUC0-24 hr/Dose / AUCTlast/Dose / Cmax/Dose / Tlast / AUC(0-t) / Tmax: Day 1, rats; for Cmax: both sexes, Day 1, rats males and females combined; for Cmax / AUC(0-t) / Tmax: rat, plasma; for AUC(0-t): sc
Source text: Example 2: Study of DMT Succinate Administered Subcutaneously

[1] = 5 mg/kg DMT succinate single SC
[2] = 10 mg/kg DMT succinate single SC

## CN(C)CCc1c[nH]c2ccccc12 [DMT, N,N-dimethyltryptamine]
5 mg/kg DMT succinate SC, Time 0.5 h
  DMT plasma concentration: 228
5 mg/kg DMT succinate SC, Time 1 h
  DMT plasma concentration: 202
5 mg/kg DMT succinate SC, Time 2 h
  DMT plasma concentration: 27.1
5 mg/kg DMT succinate SC, Time 4 h
  DMT plasma concentration: 0
5 mg/kg DMT succinate SC, Time 8 h
  DMT plasma concentration: 0
5 mg/kg DMT succinate SC, Time 12 h
  DMT plasma concentration: 0
5 mg/kg DMT succinate SC, Time 24 h
  DMT plasma concentration: 0
[1]
  AUC0-24 hr/Dose: 61.1 kg·ng·h/mL/mg
  AUCTlast/Dose: 55.7 kg·ng·h/mL/mg
  Cmax/Dose: 45.5 kg·ng/mL/mg
  Tlast: 2 h
  Cmax: 228 ng/mL
  Tmax: 30 min
10 mg/kg DMT succinate SC, Time 0.5 h
  DMT plasma concentration: 836
10 mg/kg DMT succinate SC, Time 1 h
  DMT plasma concentration: 1260
10 mg/kg DMT succinate SC, Time 2 h
  DMT plasma concentration: 1170
10 mg/kg DMT succinate SC, Time 4 h
  DMT plasma concentration: 149
10 mg/kg DMT succinate SC, Time 8 h
  DMT plasma concentration: 0.707
10 mg/kg DMT succinate SC, Time 12 h
  DMT plasma concentration: 0
10 mg/kg DMT succinate SC, Time 24 h
  DMT plasma concentration: 0
[2]
  AUC0-24 hr/Dose: 143 kg·ng·h/mL/mg
  AUCTlast/Dose: 142 kg·ng·h/mL/mg
  Cmax/Dose: 50.5 kg·ng/mL/mg
  Tlast: 8 h
  Cmax: 1260 ng/mL
  Tmax: 60 min
5 mg/kg, 5 mg/kg DMT succinate single SC, read-out: AUC0-24 hr
  AUC(0-t): 306 ng·h/mL
5 mg/kg, 5 mg/kg DMT succinate single SC, read-out: AUCTlast
  AUC(0-t): 278 ng·h/mL
10 mg/kg, 10 mg/kg DMT succinate single SC, read-out: AUC0-24 hr
  AUC(0-t): 3560 ng·h/mL
10 mg/kg, 10 mg/kg DMT succinate single SC, read-out: AUCTlast
  AUC(0-t): 3560 ng·h/mL
